Broadly, the IC50 is the concentration at which inhibition is half-maximal. The low end stands for greater potency in that assay, the high end for weaker potency in that assay.

In test [1] the test system is K562 (chronic myelogenous leukemia; leukemia cell line +ve for Bcr-Abl). The test is described as follows: Cytotoxicity on K562 cancer cell line. In kind it is cell-based. The conditions noted are these: Homo sapiens; K562 cells, 96 h treatment. How it is done: (§1) The effect of the compounds described herein on tumor cells was determined by the assay described by Latham et al., Oncogene 12:827-837 (1996). Tumor cells K562 (chronic myelogenous leukemia; leukemia cell line +ve for Bcr-Abl) or DU145 (prostate cancer) were plated in 12-well dishes at a cell density of 2.5×10^4 cells per well. The plated cells were treated 24h. later with a DMSO solution of a compound as described herein at multiple concentrations ranging from 0.01 μM to 100 μM. The plates were examined 96 h. later under an inverted microscope, Olympus CK-2 using a 10× objective, and compound activity was noted by physical observation. When necessary, the total number of viable cells was determined by trypsinizing the wells and counting the number of viable cells, as determined by trypan blue exclusion, using a hemacytometer.

The next test deals with DU145 (prostate cancer). As to the kind of experiment: Cytotoxicity on DU145 cancer cell line. In kind it is cell-based. The conditions noted are these: Homo sapiens, DU-145; DU145 cells, 96 h treatment. The procedure: as §1
A further test has as its target T1, ABL1 (Homo sapiens, UniProt P00519).
T1 construct: purchased Reaction Biology Corporation
The test is described as follows: Kinase inhibition assay (Reaction Biology). Conditions: 10 μM ATP; 5-dose IC50 mode. In kind it is biochemical. The procedure: (§2) Kinase assays were performed at Reaction Biology Corporation. To a freshly prepared buffer solution was added the target kinase at a concentration of 20 μM. The contents were mixed gently, and then compound 1b dissolved in DMSO was added to the reaction mixture in the appropriate concentration. The mixture was incubated at room temperature for 30 min. prior to addition of ATP to initiate the reaction. Compound 1b was tested in a 5-dose IC50 mode with 10-fold serial dilutions starting at 10 μM. Staurosporine was used as a control compound in a 10-dose IC50 mode with 3-fold serial dilutions starting at 20 μM. Reaction was carried out at 10 μM ATP concentration.

For the next test, the target named is T2, ABL2/ARG (Homo sapiens, UniProt P42684).
T2 construct: purchased Reaction Biology Corporation
The test is described as follows: Kinase inhibition assay (Reaction Biology). In kind it is biochemical. The conditions noted are these: 10 μM ATP; 5-dose IC50 mode. The procedure: as §2

Another test has as its target T3, FGR (Homo sapiens, UniProt P09769).
T3 construct: purchased Reaction Biology Corporation
As to the kind of experiment: Kinase inhibition assay (Reaction Biology). In kind it is biochemical. The conditions noted are these: 10 μM ATP; 5-dose IC50 mode. How it is done: as §2

In a further test the target is T4, PI3K-α (Homo sapiens, UniProt P42336).
T4 construct: purchased Reaction Biology Corporation
The test is described as follows: Kinase inhibition assay (Reaction Biology). In kind it is biochemical. Conditions: Table 2; 10 μM ATP; 5-dose IC50 mode. The procedure:
as §2

The next test has as its target T5, PI3K-δ (Homo sapiens, UniProt O00329).
T5 construct: purchased Reaction Biology Corporation
The test is described as follows: Kinase inhibition assay (Reaction Biology). In kind it is biochemical. The conditions noted are these: Table 2; 10 μM ATP; 5-dose IC50 mode. The procedure: as §2

The target in the next test is T6, RPIK2 (Homo sapiens, UniProt O43353).
T6 construct: purchased Reaction Biology Corporation
As to the kind of experiment: Kinase inhibition assay (Reaction Biology). The conditions noted are these: 10 μM ATP; 5-dose IC50 mode. Format: biochemical. The procedure:
as §2

A further test addresses T7, ABL1 (E255K) (Homo sapiens, UniProt P00519, E255K).
T7 construct: purchased Reaction Biology Corporation
As to the kind of experiment: Inhibition of ABL mutants. In kind it is biochemical. The conditions noted are these: 10 μM ATP; 5-dose IC50 mode. The procedure:
as §2

For a further test, the target named is T8, ABL1 (G250E) (Homo sapiens, UniProt P00519, G250E).
T8 construct: purchased Reaction Biology Corporation
As to the kind of experiment: Inhibition of ABL mutants. Format: biochemical. Conditions: 10 μM ATP; 5-dose IC50 mode. The procedure: as §2

For the next test, the target named is T9, ABL1 (H396P) (Homo sapiens, UniProt P00519, H396P).
T9 construct: purchased Reaction Biology Corporation
The test is described as follows: Inhibition of ABL mutants. Format: biochemical. Conditions: 10 μM ATP; 5-dose IC50 mode. The procedure: as §2

A further test deals with T10, ABL1 (M351T) (Homo sapiens, UniProt P00519, M351T).
T10 construct: purchased Reaction Biology Corporation
As to the kind of experiment: Inhibition of ABL mutants. Conditions: 10 μM ATP; 5-dose IC50 mode. In kind it is biochemical. How it is done:
as §2

The target in a further test is T11, ABL1 (Q252H) (Homo sapiens, UniProt P00519, Q252H).
T11 construct: purchased Reaction Biology Corporation
As to the kind of experiment: Inhibition of ABL mutants. Format: biochemical. The conditions noted are these: 10 μM ATP; 5-dose IC50 mode. The procedure:
as §2

The next test has as its target T12, ABL1 (T315I) (Homo sapiens, UniProt P00519, T315I).
T12 construct: purchased Reaction Biology Corporation
As to the kind of experiment: Inhibition of ABL mutants. Conditions: 10 μM ATP; 5-dose IC50 mode. In kind it is biochemical. The procedure:
as §2

A further test deals with T13, ABL1 (Y253F) (Homo sapiens, UniProt P00519, Y253F).
T13 construct: purchased Reaction Biology Corporation
The test is described as follows: Inhibition of ABL mutants. In kind it is biochemical. Conditions: 10 μM ATP; 5-dose IC50 mode. The procedure:
as §2

A further test has as its target T14, PIK3-α (Homo sapiens, UniProt P42336).
T14 construct: purchased Reaction Biology Corporation
The test is described as follows: Inhibition of PI3K kinases. Format: biochemical. Conditions: Table 4; 10 μM ATP; 5-dose IC50 mode. How it is done: as §2, with “were mixed gently and then” for “were mixed gently, and then”, “at 20 µM. Reaction was” for “at 20 μM. Reaction was”

Another test has as its target T15, PIK3-β (Homo sapiens, UniProt P42338).
T15 construct: purchased Reaction Biology Corporation
As to the kind of experiment: Inhibition of PI3K kinases. Conditions: Table 4; 10 μM ATP; 5-dose IC50 mode. In kind it is biochemical. The procedure:
as §2, with “were mixed gently and then” for “were mixed gently, and then”, “at 20 µM. Reaction was” for “at 20 μM. Reaction was”

Another test has as its target T16, PIK3-γ (Homo sapiens, UniProt P48736).
T16 construct: purchased Reaction Biology Corporation
As to the kind of experiment: Inhibition of PI3K kinases. The conditions noted are these: Table 4; 10 μM ATP; 5-dose IC50 mode. Format: biochemical. The procedure:
as §2, with “were mixed gently and then” for “were mixed gently, and then”, “at 20 µM. Reaction was” for “at 20 μM. Reaction was”

The target of a further test is T17, PIK3-δ (Homo sapiens, UniProt O00329).
T17 construct: purchased Reaction Biology Corporation
As to the kind of experiment: Inhibition of PI3K kinases. In kind it is biochemical. The conditions noted are these: Table 4; 10 μM ATP; 5-dose IC50 mode. The procedure: as §2, with “were mixed gently and then” for “were mixed gently, and then”, “at 20 µM. Reaction was” for “at 20 μM. Reaction was”

SMILES strings stand for the structures.

T16 sequence (P48736 whole entry): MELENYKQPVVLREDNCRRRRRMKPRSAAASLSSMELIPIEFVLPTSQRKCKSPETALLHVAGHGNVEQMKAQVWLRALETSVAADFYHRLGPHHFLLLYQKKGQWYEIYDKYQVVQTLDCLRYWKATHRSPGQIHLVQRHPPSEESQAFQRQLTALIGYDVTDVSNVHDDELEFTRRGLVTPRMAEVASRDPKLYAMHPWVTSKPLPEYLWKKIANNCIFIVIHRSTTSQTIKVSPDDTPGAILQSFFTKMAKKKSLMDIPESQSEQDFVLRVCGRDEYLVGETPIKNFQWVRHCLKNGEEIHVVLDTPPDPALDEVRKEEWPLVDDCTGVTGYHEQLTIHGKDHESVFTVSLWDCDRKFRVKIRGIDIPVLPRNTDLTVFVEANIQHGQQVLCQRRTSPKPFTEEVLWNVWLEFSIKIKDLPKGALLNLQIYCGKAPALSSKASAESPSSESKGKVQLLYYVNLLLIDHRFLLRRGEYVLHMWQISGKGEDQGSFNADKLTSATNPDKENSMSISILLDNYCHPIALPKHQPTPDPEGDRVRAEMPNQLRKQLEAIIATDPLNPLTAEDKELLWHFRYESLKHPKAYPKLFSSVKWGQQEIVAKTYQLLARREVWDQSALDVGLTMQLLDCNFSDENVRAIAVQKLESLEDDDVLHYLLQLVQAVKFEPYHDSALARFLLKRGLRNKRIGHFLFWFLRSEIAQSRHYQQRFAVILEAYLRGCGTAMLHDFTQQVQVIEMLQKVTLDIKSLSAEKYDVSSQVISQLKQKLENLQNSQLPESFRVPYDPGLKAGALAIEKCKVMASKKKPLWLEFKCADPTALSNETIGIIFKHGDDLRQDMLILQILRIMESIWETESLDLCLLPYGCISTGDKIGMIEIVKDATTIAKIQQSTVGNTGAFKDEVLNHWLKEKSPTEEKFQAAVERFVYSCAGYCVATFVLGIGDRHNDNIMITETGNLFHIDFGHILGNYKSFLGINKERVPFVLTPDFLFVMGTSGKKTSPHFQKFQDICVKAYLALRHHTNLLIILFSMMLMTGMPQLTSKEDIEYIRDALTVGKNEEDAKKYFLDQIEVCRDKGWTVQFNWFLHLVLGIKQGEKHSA
T2 sequence (P42684 whole entry): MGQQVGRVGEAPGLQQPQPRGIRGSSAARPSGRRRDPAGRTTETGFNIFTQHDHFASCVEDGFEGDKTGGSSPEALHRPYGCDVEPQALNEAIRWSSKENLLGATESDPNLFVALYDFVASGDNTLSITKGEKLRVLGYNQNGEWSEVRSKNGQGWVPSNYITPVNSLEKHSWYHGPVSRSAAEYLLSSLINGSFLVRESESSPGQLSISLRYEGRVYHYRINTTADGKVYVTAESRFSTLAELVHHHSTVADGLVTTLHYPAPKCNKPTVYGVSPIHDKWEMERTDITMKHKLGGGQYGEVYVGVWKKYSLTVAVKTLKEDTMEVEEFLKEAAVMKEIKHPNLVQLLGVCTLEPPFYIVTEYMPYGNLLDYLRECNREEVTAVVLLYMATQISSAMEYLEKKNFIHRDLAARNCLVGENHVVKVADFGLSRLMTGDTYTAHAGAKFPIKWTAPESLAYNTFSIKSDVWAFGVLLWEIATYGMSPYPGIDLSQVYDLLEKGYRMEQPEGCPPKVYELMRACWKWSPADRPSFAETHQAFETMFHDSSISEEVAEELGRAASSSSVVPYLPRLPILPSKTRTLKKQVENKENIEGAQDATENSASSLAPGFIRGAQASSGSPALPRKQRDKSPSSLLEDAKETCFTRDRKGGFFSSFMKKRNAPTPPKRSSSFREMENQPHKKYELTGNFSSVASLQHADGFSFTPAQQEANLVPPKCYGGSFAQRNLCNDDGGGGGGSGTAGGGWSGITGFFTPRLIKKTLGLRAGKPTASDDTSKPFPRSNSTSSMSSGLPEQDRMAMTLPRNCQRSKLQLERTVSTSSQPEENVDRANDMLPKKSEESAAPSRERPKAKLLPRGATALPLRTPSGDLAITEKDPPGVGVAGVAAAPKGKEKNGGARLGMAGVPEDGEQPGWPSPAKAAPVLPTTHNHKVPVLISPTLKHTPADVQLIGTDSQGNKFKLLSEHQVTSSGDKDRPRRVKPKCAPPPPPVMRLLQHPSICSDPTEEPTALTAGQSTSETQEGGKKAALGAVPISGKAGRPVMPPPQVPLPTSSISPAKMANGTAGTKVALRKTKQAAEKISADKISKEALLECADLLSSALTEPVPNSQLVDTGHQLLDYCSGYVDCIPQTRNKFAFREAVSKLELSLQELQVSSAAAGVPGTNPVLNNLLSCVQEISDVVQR
T6 sequence (O43353 whole entry): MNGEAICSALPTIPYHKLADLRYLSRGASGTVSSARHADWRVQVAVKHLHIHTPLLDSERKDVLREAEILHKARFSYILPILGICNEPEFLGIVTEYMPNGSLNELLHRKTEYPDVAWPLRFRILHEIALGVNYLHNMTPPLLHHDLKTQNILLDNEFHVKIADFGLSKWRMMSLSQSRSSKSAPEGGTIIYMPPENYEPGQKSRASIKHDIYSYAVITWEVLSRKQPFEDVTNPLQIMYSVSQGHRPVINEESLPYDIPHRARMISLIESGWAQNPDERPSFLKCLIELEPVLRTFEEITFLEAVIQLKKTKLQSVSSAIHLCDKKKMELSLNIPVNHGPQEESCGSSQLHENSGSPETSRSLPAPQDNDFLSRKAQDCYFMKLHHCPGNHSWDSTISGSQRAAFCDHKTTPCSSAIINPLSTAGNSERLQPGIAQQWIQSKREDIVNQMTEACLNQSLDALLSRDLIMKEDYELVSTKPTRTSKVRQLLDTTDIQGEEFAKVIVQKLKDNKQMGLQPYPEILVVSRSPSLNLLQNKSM
T14 sequence (P42336 whole entry): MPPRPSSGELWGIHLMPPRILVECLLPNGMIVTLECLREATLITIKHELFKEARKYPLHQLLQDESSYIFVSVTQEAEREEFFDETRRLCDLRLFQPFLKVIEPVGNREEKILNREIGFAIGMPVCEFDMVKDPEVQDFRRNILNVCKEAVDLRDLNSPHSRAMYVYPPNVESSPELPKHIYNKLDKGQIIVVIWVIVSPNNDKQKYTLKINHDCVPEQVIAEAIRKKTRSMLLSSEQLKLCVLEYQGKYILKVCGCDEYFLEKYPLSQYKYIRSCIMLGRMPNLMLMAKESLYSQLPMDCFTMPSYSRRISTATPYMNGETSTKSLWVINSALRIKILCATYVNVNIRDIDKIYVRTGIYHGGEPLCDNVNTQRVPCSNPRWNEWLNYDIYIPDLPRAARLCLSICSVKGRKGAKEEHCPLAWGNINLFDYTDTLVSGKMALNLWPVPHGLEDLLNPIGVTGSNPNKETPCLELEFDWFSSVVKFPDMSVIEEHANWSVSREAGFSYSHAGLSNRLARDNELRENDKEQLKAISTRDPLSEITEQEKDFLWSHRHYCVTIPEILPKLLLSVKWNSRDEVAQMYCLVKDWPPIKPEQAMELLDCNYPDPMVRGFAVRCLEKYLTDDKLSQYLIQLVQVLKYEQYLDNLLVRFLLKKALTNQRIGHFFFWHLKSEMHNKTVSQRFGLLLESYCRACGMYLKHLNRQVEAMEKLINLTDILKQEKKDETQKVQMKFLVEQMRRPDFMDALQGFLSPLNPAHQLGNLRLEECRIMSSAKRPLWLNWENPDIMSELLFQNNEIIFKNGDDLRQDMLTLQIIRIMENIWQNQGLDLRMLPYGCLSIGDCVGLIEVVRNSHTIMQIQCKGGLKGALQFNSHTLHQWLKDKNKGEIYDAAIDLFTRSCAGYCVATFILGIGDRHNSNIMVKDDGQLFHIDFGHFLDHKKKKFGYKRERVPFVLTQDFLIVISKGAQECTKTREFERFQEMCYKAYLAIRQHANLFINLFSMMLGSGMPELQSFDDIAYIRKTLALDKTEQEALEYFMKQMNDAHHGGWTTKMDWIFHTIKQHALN
T14 sequence (P27986 whole entry partner): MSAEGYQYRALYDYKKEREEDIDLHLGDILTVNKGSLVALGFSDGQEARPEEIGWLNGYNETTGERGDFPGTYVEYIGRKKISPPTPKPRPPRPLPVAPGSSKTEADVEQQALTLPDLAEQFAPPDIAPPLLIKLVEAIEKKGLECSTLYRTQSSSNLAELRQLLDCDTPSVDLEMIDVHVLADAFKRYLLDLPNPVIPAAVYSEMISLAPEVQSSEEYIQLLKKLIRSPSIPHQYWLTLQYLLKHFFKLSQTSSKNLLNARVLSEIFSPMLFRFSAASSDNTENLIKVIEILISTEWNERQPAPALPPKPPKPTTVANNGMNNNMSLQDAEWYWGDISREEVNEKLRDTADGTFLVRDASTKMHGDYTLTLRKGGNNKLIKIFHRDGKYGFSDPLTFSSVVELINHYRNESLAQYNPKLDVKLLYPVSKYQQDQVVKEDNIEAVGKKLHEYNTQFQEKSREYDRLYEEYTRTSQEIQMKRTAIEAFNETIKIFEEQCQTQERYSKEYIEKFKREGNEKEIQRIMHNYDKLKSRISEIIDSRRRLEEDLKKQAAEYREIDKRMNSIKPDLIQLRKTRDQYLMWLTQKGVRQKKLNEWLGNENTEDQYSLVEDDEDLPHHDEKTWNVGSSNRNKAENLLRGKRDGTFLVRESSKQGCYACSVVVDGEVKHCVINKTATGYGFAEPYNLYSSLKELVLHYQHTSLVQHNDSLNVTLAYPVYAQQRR
T4 sequence (P42336 whole entry): as the sequence (P42336 whole entry) above
T4 sequence (P27986 whole entry partner): as the sequence (P27986 whole entry partner) above

For `CN1CCN(c2ccc(Nc3ncc4c(n3)S/C(=C/c3ccc([N+](=O)[O-])cc3)C(=O)N4)cc2)CC1` [Compound 1b, (E)-2-(4-(4-Methylpiperazin-1-yl)phenylamino)-7-(4-nitrobenzylidene)-5H-pyrimido[4,5-b][1,4]thiazin-6(7H)-one], the IC50 was below 1 µM in test [1]; below 1 µM in the test with DU145 (prostate cancer); 0.019 µM against ABL1; 0.03 µM against ABL2/ARG; 0.124 µM at FGR; 0.013 µM against PI3K-α. Further, the IC50 against PI3K-δ stood at 0.02 µM; at RPIK2 it was 0.068 µM; against ABL1 (E255K) it was 0.106 µM; at ABL1 (G250E), 0.035 µM; against ABL1 (H396P), 0.009 µM; against ABL1 (M351T) it was 0.012 µM. For the same compound, the concentration for half-maximal inhibition (IC50) against ABL1 (Q252H) was found to be 0.01 µM; against ABL1 (T315I), 2.73 µM; against ABL1 (Y253F), 0.06 µM; on PIK3-α, 0.004 µM; against PIK3-β, 0.01 µM; against PIK3-γ it was 0.022 µM. Half-maximal inhibition against PIK3-δ (IC50) was put at 0.007 µM.
